Experimental data from US9193744B2, “Heterocyclic nuclear hormone receptor modulators” (AbbVie Inc., priority 2012, dated 2015).
Like-named read-outs stand apart in the source and are kept apart here.

How the values were obtained:
[1] = target: T1, Glucocorticoid Receptor (GR) (Homo sapiens, UniProt P04150); test: GR Fluorescence Polarization Assay (PolarScreen Glucocorticoid Receptor Competitor Assay, Red); details: fluorescence polarization binding ranges
T1 construct: purchased Invitrogen P2893
T1 sequence (P04150 1-777): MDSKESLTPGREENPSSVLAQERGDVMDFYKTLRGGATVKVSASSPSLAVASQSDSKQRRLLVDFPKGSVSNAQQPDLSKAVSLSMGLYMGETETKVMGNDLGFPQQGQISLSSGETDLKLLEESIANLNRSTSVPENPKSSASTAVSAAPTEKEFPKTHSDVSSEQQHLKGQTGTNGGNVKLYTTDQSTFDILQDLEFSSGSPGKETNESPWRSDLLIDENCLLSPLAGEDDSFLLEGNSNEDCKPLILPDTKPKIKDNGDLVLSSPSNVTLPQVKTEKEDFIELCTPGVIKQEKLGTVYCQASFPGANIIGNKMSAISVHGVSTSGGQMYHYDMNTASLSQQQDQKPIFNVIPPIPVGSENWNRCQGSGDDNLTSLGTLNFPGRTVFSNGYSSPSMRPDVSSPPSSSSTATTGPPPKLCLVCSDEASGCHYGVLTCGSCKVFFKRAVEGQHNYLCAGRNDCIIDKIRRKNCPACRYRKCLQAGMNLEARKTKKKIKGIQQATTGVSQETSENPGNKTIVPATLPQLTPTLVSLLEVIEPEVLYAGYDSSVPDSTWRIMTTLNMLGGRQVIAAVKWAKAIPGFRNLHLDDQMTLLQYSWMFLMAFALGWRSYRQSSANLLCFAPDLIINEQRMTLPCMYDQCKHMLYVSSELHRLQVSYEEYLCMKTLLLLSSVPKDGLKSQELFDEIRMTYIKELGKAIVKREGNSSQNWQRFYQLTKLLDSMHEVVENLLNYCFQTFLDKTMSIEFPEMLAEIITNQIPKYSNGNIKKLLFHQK
Description: Fluorescence polarization assays were carried out using the PolarScreen™ Glucocorticoid Receptor Competitor Assay, Red from Invitrogen (P2893). The assay buffer was prepared according to the manufacturer's protocol and used to dilute the fluorescent glucocorticoid and GR. Compounds were prepared and serial diluted 1:4 in DMSO. Compound, fluorescent glucocorticoid and GR were added in a final volume of 20 μL and incubated overnight at 4° C. Fluorescent polarization was measured on the PerkinElmer Envision®. Fluorescence polarization binding ranges measured using GR Fluorescence Polarization Assay: […]

[2] = system: IL-6; test: A549 Cell Assay to Measure Inflammation Markers (inhibition of IL-1β-induced IL-6); assay type: cell-based; details: A549 cells, read-out: A549 cell assay
Description: A549 Cell Assay to Measure Inflammation Markers
A549 cells were seeded (3E4 cells/well) in 96-well assay plates in culture medium (100 μL/well., F-12 K base media, supplemented with 10% FBS and 100 μ/mL-100 μg/mL Pen-Strep.) After overnight culture in an incubator set to 37° C., 4.9% CO2, and 90% humidity, media was removed from adherent cells by aspiration and replaced with 100 μL/well Assay Medium (F-12 K base media supplemented with 5% charcoal stripped calf sera and 100 U/mL-100 μg/mL Pen-Strep.) Compounds were prepared in DMSO and serial diluted (1:3, 1:4, or 1:5) with DMSO in Dilution Plate(s) to give 10 dilution points for each compound tested. Further dilution (1:250) of compound was made into assay medium and 50 μL/well diluted drug or DMSO/media control was applied to cells. After a 1 h pre-incubation in a temperature, CO2, and humidity controlled incubator, set to 37° C., 50 μL/well of 4 ng/mL IL-1β diluted in assay media, was applied to cultures. Assay plates, with a final volume of 200 μL/well and final concentrations of 0.1% DMSO and 1 ng/mL IL-1β were returned to incubator for a four h incubation period. Next, plates were spun at 183 g (1000 rpm in Beckman/Coulter Allegra 6KR centrifuge) for 10 min. Cell-free supernatant (150 μL/well) was collected and IL-6 was measured by MSD kit, following protocol of manufacturer, and using MSD SECTOR Imager 6000 instrument. Potency of compounds to inhibit IL-6 was determined using the percent reduction of measured IL-6 in wells with compound compared to control wells without drug, and relative to (100% inhibition) positive control compound of 1 μM prednisolone. Results were represented as IC50 and Emax values. To verify that viable cell numbers were similar across plate(s), and not confounding compound IC50 data interpretation, the remaining 50 μL/well of cells and media (after removal of supernatant) were used to run Cell Titer-Glo Assay per directions of manufacturer.

CC[C@@]12CC[C@](O)(COC)C[C@@H]1CCCc1cc3c(cnn3-c3ccnc(C)c3)cc12 (racemic) [Example 45]
IC50 [1]: < 100 nM | IC50 [2]: < 100 nM

OC[C@@]12CC[C@](O)(C(F)(F)F)C[C@H]1CCCc1cc3c(cnn3-c3ccc(F)cc3)cc12 (racemic) [Example 80]
IC50 [1]: < 100 nM | IC50 ([2]; Homo sapiens): < 100 nM

CC[C@@]12CC(=O)[C@](C)(O)C[C@@H]1CCCc1cc3c(cnn3-c3ccc(F)cc3)cc12 (racemic) [Example 100, rac-(3R,4aS,12bR)-12b-Ethyl-9-(4-fluorophenyl)-3-hydroxy-3-methyl-1,3,4,4a,5,6,7,12b-octahydrobenzo[6,7]cyclohepta[1,2-f]indazol-2(9H)-one]
IC50 [1]: < 100 nM | IC50 ([2]; Homo sapiens): < 100 nM

CC[C@@]12CC[C@](O)(COC)C[C@@H]1CCOc1cc3c(cnn3-c3ccc(F)cc3)cc12 (racemic) [Example 129]
IC50 [1]: < 100 nM | IC50 [2]: < 100 nM

CC[C@@]12CC[C@](O)(COC)C[C@@H]1CCOc1cc3c(cnn3-c3ccncc3)cc12 (racemic) [Example 132]
IC50 [1]: < 100 nM | IC50 ([2]; Homo sapiens): < 100 nM

CC[C@@]12CC[C@](O)(COC)C[C@@H]1CCOc1cc3c(cnn3-c3nnc(C)s3)cc12 (racemic) [Example 139]
IC50 [1]: 100 to 1000 nM

C[C@@]1(O)CC[C@@]2(Cc3ccccn3)c3cc4cnn(-c5ccc(F)cc5)c4nc3CCC[C@H]2C1 (racemic) [Example 148, rac-(3R,4aS,12bS)-9-(4-Fluorophenyl)-3-methyl-12b-(pyridin-2-ylmethyl)-1,2,3,4,4a,5,6,7,9,12b-decahydrobenzo[3,4]cyclohepta[1,2-b]pyrazolo[4,3-e]pyridin-3-ol]
IC50 [1]: < 100 nM | IC50 ([2]; Homo sapiens): < 100 nM

CC[C@]12CC[C@](O)(C(F)(F)F)C[C@@H]1CCCc1nc3c(cnn3-c3ccc(F)cc3)cc12 (racemic) [Example 151, rac-(3R,4aS,12bS)-12b-Ethyl-9-(4-fluorophenyl)-3-(trifluoromethyl)-1,2,3,4,4a,5,6,7,9,12b-decahydrobenzo[3,4]cyclohepta[1,2-b]pyrazolo[4,3-e]pyridin-3-ol]
IC50 [1]: 1000 to 10000 nM | IC50 ([2]; Homo sapiens): 100 to 1000 nM

CC[C@@]12CC[C@](O)(C(F)(F)F)C[C@H]1CCCc1nc3c(cnn3-c3ccc(F)cc3)cc12 (racemic) [Example 152, rac-(3R,4aR,12bR)-12b-ethyl-9-(4-fluorophenyl)-3-(trifluoromethyl)-1,2,3,4,4a,5,6,7,9,12b-decahydrobenzo[3,4]cyclohepta[1,2-b]pyrazolo[4,3-e]pyridin-3-ol]
IC50 [1]: < 100 nM | IC50 ([2]; Homo sapiens): < 100 nM

O[C@@]1(C(F)(F)F)CC[C@@]2(Cc3ccccn3)c3cc4cnn(-c5ccc(F)cc5)c4nc3CCC[C@H]2C1 (racemic) [Example 155, rac-(3R,4aR,12bR)-9-(4-Fluorophenyl)-12b-(pyridin-2-ylmethyl)-3-(trifluoromethyl)-1,2,3,4,4a,5,6,7,9,12b-decahydrobenzo[3,4]cyclohepta[1,2-b]pyrazolo[4,3-e]pyridin-3-ol]
IC50 [1]: 100 to 1000 nM | IC50 ([2]; Homo sapiens): > 10000 nM

O[C@]1(C(F)(F)F)CC[C@@]2(Cc3ccccn3)c3cn4cnc(-c5ccc(F)cc5)c4cc3CCC[C@@H]2C1 (racemic) [Example 166, rac-(3R,4aR,13bS)-9-(4-fluorophenyl)-13b-(pyridin-2-ylmethyl)-3-(trifluoromethyl)-2,3,4,4a,5,6,7,13b-octahydro-1H-benzo[3,4]cyclohepta[1,2-d]imidazo[1,5-a]pyridin-3-ol]
IC50 [1]: < 100 nM | IC50 ([2]; Homo sapiens): < 100 nM

COC[C@@]1(O)CC[C@@]2(Cc3ccccn3)c3cn4cnc(-c5ccc(F)cc5)c4cc3CCC[C@H]2C1 (racemic) [Example 167, rac-(3R,4aS,13bS)-9-(4-Fluorophenyl)-3-(methoxymethyl)-13b-(pyridin-2-ylmethyl)-2,3,4,4a,5,6,7,13b-octahydro-1H-benzo[3,4]cyclohepta[1,2-d]imidazo[1,5-a]pyridin-3-ol]
IC50 [1]: < 100 nM | IC50 ([2]; Homo sapiens): < 100 nM

CC[C@]12CC[C@](O)(C(F)(F)F)C[C@H]1CCCc1cc3c(cnn3-c3ccc(F)cc3)cc12 (single isomer, unassigned) [Example 2]
IC50 [1]: < 100 nM | IC50 ([2]; Homo sapiens): < 100 nM

CCC[C@@]1(O)CC[C@]2(CC)c3cc4cnn(-c5ccc(F)cc5)c4cc3CCC[C@H]2C1 (single isomer, unassigned) [Example 6]
IC50 [1]: 100 to 1000 nM | IC50 ([2]; Homo sapiens): 100 to 1000 nM

CC[C@]12CC[C@](O)(COC)C[C@@H]1CCCc1cc3c(cnn3-c3ccc(F)cc3)cc12 (single isomer, unassigned) [Example 8]
IC50 [1]: 100 to 1000 nM | IC50 ([2]; Homo sapiens): > 10000 nM

O=C(NC1CC1)[C@@]12CC[C@](O)(C(F)(F)F)C[C@H]1CCCc1cc3c(cnn3-c3ccc(F)cc3)cc12 (single isomer, unassigned) [Example 86]
IC50 [1]: 100 to 1000 nM

CC[C@]12CC[C@@](O)(COC)C[C@H]1CCOc1cc3c(cnn3-c3ccnc(C)c3)cc12 (single isomer, unassigned) [Example 127]
IC50 [1]: 100 to 1000 nM

C[C@]1(O)CC[C@]2(Cc3ccccn3)c3cc4cnn(-c5ccc(F)cc5)c4nc3CCC[C@@H]2C1 (single isomer, unassigned) [Example 150]
IC50 [1]: 100 to 1000 nM

Cc1cc(-n2ncc3cc4c(cc32)CCC[C@@H]2C[C@@](C)(O)CC[C@]42Cc2ccccn2)ccn1 [Example 61]
IC50 [1]: 100 to 1000 nM

Cc1cc(-n2ncc3cc4c(cc32)CCC[C@H]2C[C@@](O)(CC#N)CC[C@@]42Cc2ccccn2)ccn1 [Example 70]
IC50 [2]: < 100 nM

CC[C@]12CC[C@@](OP(=O)(O)O)(C(F)(F)F)C[C@@H]1CCCc1cc3c(cnn3-c3ccc(F)cc3)cc12 [Example 101, (3S,4aS,12bS)-12b-Ethyl-9-(4-fluorophenyl)-3-(trifluoromethyl)-1,2,3,4,4a,5,6,7,9,12b-decahydrobenzo[6,7]cyclohepta[1,2-f]indazol-3-yl dihydrogen phosphate]
IC50 [1]: 100 to 1000 nM

CC[C@]12CC[C@@](O)(COC)C[C@H]1CCOc1cc3c(cnn3-c3ccnc(OC)c3)cc12 [Example 137]
IC50 [1]: 1000 to 10000 nM

CC[C@]12CC[C@@](O)(COC)C[C@H]1CCOc1cc3c(cnn3-c3ccnc(C(F)(F)F)c3)cc12 [Example 140]
IC50 [1]: 100 to 1000 nM

CC[C@]12CC[C@](C)(O)C[C@H]1CCOc1cc3c(cnn3-c3ccnc(C)c3)cc12 [Example 142]
IC50 [1]: 100 to 1000 nM

CC[C@]12CC[C@@](O)(CC#N)C[C@H]1CCOc1cc3c(cnn3-c3ccnc(C)c3)cc12 [Example 144]
IC50 [1]: 100 to 1000 nM

COC[C@]1(O)CC[C@]2(Cc3ccccn3)c3cc4cnn(-c5ccc(F)cc5)c4nc3CCC[C@H]2C1 [Example 157]
IC50 [1]: 100 to 1000 nM

COC[C@]1(O)CC[C@]2(Cc3ncccn3)c3cc4cnn(-c5ccc(F)cc5)c4nc3CCC[C@@H]2C1 [Example 159]
IC50 [1]: 100 to 1000 nM

C[C@@]1(O)CC[C@@]2(Cc3ncccn3)c3cc4cnn(-c5ccc(F)cc5)c4nc3CCC[C@H]2C1 [Example 161]
IC50 [1]: 100 to 1000 nM

N#CC[C@]1(O)CC[C@]2(Cc3ccccn3)c3cc4cnn(-c5ccc(F)cc5)c4nc3CCC[C@@H]2C1 [Example 164]
IC50 [1]: 100 to 1000 nM

CC[C@]12CC[C@@](OS(N)(=O)=O)(C(F)(F)F)C[C@@H]1CCCc1cc3c(cnn3-c3ccc(F)cc3)cc12 [Example 170, (3S,4aS,12bS)-12b-ethyl-9-(4-fluorophenyl)-3-(trifluoromethyl)-1,2,3,4,4a,5,6,7,9,12b-decahydrobenzo[6,7]cyclohepta[1,2-f]indazol-3-yl sulfamate]
IC50 [1]: 100 to 1000 nM
